Tests used:
morningglory [1] = experiment: Test C pre-/postemergence test; assay type: in vivo, Ipomoea coccinea
How it was run: (§1)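 Compounds in a non-phytotoxic solvent with surfactant applied preemergence to seeded pots and, at the same time, postemergence to plants 2–18 cm tall (1- to 4-leaf stage). Paddy tests: pots flooded to 3 cm, compound applied into the water, depth held throughout.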

pigweed = experiment: Test C pre-/postemergence test; assay type: in vivo, Amaranthus retroflexus
How it was run: as §1

yellow nutsedge = experiment: Test C pre-/postemergence test; assay type: in vivo, Cyperus esculentus
How it was run: as §1

woolly cupgrass = experiment: Test C pre-/postemergence test; assay type: in vivo, Eriochloa villosa
How it was run: as §1

barnyardgrass = experiment: Test A pre-/postemergence greenhouse test; assay type: in vivo, Echinochloa crus-galli; details: for Barnyardgrass plant response rating: 0 to 100 scale; for Plant response rating, Barnyardgrass: 0 to 100 scale where 0 is no effect and 100 is complete control
How it was run: (§2)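 Each test compound, dissolved in a non-phytotoxic solvent mixture with surfactant, was sprayed directly onto seeded soil (loam/sand blend) and, at the same moment, onto seedlings carrying one to two leaves. Around ten greenhouse days later, plants were rated visually for injury relative to untreated controls.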

blackgrass = experiment: Test C pre-/postemergence test; assay type: in vivo, Alopecurus myosuroides
How it was run: as §1

crabgrass = experiment: Test C pre-/postemergence test; assay type: in vivo, Digitaria sanguinalis
How it was run: as §1

green foxtail = experiment: Test C pre-/postemergence test; assay type: in vivo, Setaria viridis
How it was run: as §1

kochia = experiment: Test C pre-/postemergence test; assay type: in vivo, Kochia scoparia
How it was run: as §1

morningglory [2] = experiment: Test A pre-/postemergence greenhouse test; assay type: in vivo, Ipomoea spp.; details: for Morningglory plant response rating: 0 to 100 scale; for Plant response rating, Morningglory: 0 to 100 scale where 0 is no effect and 100 is complete control
How it was run: as §2

corn = experiment: Test C pre-/postemergence test; assay type: in vivo, Zea mays
How it was run: as §1

soybean = experiment: Test C pre-/postemergence test; assay type: in vivo, Glycine max
How it was run: as §1

Italian ryegrass = experiment: Test C pre-/postemergence test; assay type: in vivo, Lolium multiflorum
How it was run: as §1

umbrella sedge = experiment: Test C flooded paddy test; assay type: in vivo, Cyperus difformis; details: Flood
How it was run: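 Pots were flooded to 3 cm above the soil surface at treatment, compound applied directly to the paddy water, and that depth held throughout. Plants were kept in a greenhouse for 13 to 15 days, then visually rated against untreated controls.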

[3] = test system: common (oilseed) sunflower; experiment: Test C pre-/postemergence test; assay type: in vivo, Helianthus annuus
How it was run: as §1

wheat = experiment: Test C pre-/postemergence test; assay type: in vivo, Triticum aestivum
How it was run: as §1

cocklebur = experiment: Test C pre-/postemergence test; assay type: in vivo, Xanthium strumarium
How it was run: as §1

[4] = 31 g ai/ha, Preemergence, scale 0 to 100
[5] = 62 g ai/ha, preemergence, scale 0 (no effect) to 100 (complete control)
[6] = preemergence, 125 g ai/ha, scale 0 (no effect) to 100 (complete control)
[7] = Postemergence, 125 g ai/ha, 0 is no effect, 100 is complete control
[8] = Postemergence, 500 g ai/ha, 0 is no effect, 100 is complete control
[9] = Preemergence, 125 g ai/ha, 0 no effect, 100 complete control
[10] = 62 g ai/ha, Preemergence, scale 0 to 100
[11] = 125 g ai/ha, preemergence, scale 0 (no effect) to 100 (complete control)
[12] = Preemergence, 31 g ai/ha, scale 0 to 100 (0 no effect, 100 complete control)
[13] = preemergence, 250 g ai/ha, scale 0 (no effect) to 100 (complete control)

Compound: Cc1cc[n+]([O-])c(S(=O)(=O)C(C)c2c(C(F)(F)F)nn(C)c2OC(F)F)c1 (centres unmarked) [Compound 11]
- Morningglory plant response rating (morningglory [1]; [4]): 98
- Morningglory plant response rating (morningglory [1]; [5]): 100
- Plant response rating (0 to 100), Morningglory (morningglory [1]; Preemergence, 250 g ai/ha): 100
- Morningglory plant response rating (morningglory [1]; [6]): 100
- Pigweed plant response rating (pigweed; [4]): 100
- Pigweed plant response rating (pigweed; [5]): 100
- Plant response rating (0 to 100), Pigweed (pigweed; Preemergence, 250 g ai/ha): 100
- Pigweed plant response rating (pigweed; [6]): 100
- Nutsedge, Yellow plant response rating (yellow nutsedge; [4]): 70
- Nutsedge, Yellow plant response rating (yellow nutsedge; [5]): 98
- Plant response rating (0 to 100), Nutsedge, Yellow (yellow nutsedge; Preemergence, 250 g ai/ha): 100
- Nutsedge, Yellow plant response rating (yellow nutsedge; [6]): 100
- Cupgrass, Woolly plant response rating (woolly cupgrass; [4]): 60
- Cupgrass, Woolly plant response rating (woolly cupgrass; [5]): 80
- Plant response rating (0 to 100), Cupgrass, Woolly (woolly cupgrass; Preemergence, 250 g ai/ha): 100
- Cupgrass, Woolly plant response rating (woolly cupgrass; [6]): 85
- Barnyardgrass plant response rating (barnyardgrass; [7]): 70
- Barnyardgrass plant response rating (barnyardgrass; [8]): 80
- Barnyardgrass plant response rating (barnyardgrass; [9]): 90
- Plant response rating, Barnyardgrass (barnyardgrass; Preemergence, 500 g ai/ha): 100
- Blackgrass plant response rating (blackgrass; [4]): 0
- Blackgrass plant response rating (blackgrass; [5]): 0
- Plant response rating (0 to 100), Blackgrass (blackgrass; Preemergence, 250 g ai/ha): 90
- Blackgrass plant response rating (blackgrass; [6]): 90
- Crabgrass, Large plant response rating (crabgrass; [4]): 100
- Crabgrass, Large plant response rating (crabgrass; [5]): 100
- Plant response rating (0 to 100), Crabgrass, Large (crabgrass; Preemergence, 250 g ai/ha): 100
- Crabgrass, Large plant response rating (crabgrass; [6]): 100
- Foxtail, Green plant response rating (green foxtail; [4]): 80
- Foxtail, Green plant response rating (green foxtail; [5]): 100
- Plant response rating (0 to 100), Foxtail, Green (green foxtail; Preemergence, 250 g ai/ha): 100
- Foxtail, Green plant response rating (green foxtail; [6]): 100
- Kochia plant response rating (kochia; [4]): 60
- Kochia plant response rating (kochia; [5]): 100
- Plant response rating (0 to 100), Kochia (kochia; Preemergence, 250 g ai/ha): 100
- Kochia plant response rating (kochia; [6]): 100
- Morningglory plant response rating (morningglory [2]; [7]): 40
- Morningglory plant response rating (morningglory [2]; [8]): 50
- Morningglory plant response rating (morningglory [2]; [9]): 60
- Plant response rating, Morningglory (morningglory [2]; Preemergence, 500 g ai/ha): 90
- Corn plant response rating (corn; [4]): 0
- Corn plant response rating (corn; [5]): 50
- Plant response rating (0 to 100), Corn (corn; Preemergence, 250 g ai/ha): 98
- Corn plant response rating (corn; [6]): 98
- Soybean plant response rating (soybean; [4]): 0
- Soybean plant response rating (soybean; [5]): 0
- Plant response rating (0 to 100), Soybean (soybean; Preemergence, 250 g ai/ha): 100
- Soybean plant response rating (soybean; [6]): 20
- Ryegrass, Italian plant response rating (Italian ryegrass; [4]): 0
- Ryegrass, Italian plant response rating (Italian ryegrass; [5]): 40
- Plant response rating (0 to 100), Ryegrass, Italian (Italian ryegrass; Preemergence, 250 g ai/ha): 80
- Ryegrass, Italian plant response rating (Italian ryegrass; [6]): 70
- Plant response rating, Sedge, Umbrella (umbrella sedge; 31 g ai/ha, scale 0 to 100 (0 no effect, 100 complete control)): 0
- Plant response rating, Sedge, Umbrella (umbrella sedge; 62 g ai/ha, scale 0 to 100, 0 no effect, 100 complete control, 13 to 15 days): 90
- Plant response rating, Sedge, Umbrella (umbrella sedge; 125 g ai/ha, scale 0 to 100, 0 no effect, 100 complete control, 13 to 15 days): 90
- Plant response rating, Sedge, Umbrella (umbrella sedge; 250 g ai/ha, scale 0 to 100 (0 no effect, 100 complete control)): 90
- Sunflower plant response rating [3, 5]: 30
- Plant response rating (0 to 100), Sunflower ([3]; Preemergence, 250 g ai/ha): 98
- Sunflower plant response rating [3, 6]: 98
- Wheat plant response rating (wheat; [5]): 20
- Plant response rating (0 to 100), Wheat (wheat; Preemergence, 250 g ai/ha): 85
- Wheat plant response rating (wheat; [6]): 80
- Cocklebur plant response rating (cocklebur; [4]): 0
- Cocklebur plant response rating (cocklebur; [5]): 0
- Plant response rating (0 to 100), Cocklebur (cocklebur; Preemergence, 250 g ai/ha): 0
- Cocklebur plant response rating (cocklebur; [6]): 0

Compound: Cc1cc([S+]([O-])Cc2c(C(F)(F)F)nn(C)c2OCC(F)(F)F)[n+]([O-])cc1Cl (centres unmarked) [Compound 70]
- Morningglory plant response rating (morningglory [1]; [10]): 80
- Morningglory plant response rating (morningglory [1]; [11]): 100
- Plant response rating, Morningglory (morningglory [1]; [12]): 0
- Morningglory plant response rating (morningglory [1]; [13]): 100
- Pigweed plant response rating (pigweed; [10]): 100
- Pigweed plant response rating (pigweed; [11]): 100
- Plant response rating, Pigweed (pigweed; [12]): 100
- Pigweed plant response rating (pigweed; [13]): 100
- Nutsedge, Yellow plant response rating (yellow nutsedge; [10]): 65
- Nutsedge, Yellow plant response rating (yellow nutsedge; [11]): 65
- Plant response rating, Nutsedge, Yellow (yellow nutsedge; [12]): 60
- Nutsedge, Yellow plant response rating (yellow nutsedge; [13]): 95
- Cupgrass, Woolly plant response rating (woolly cupgrass; [10]): 98
- Cupgrass, Woolly plant response rating (woolly cupgrass; [11]): 100
- Plant response rating, Cupgrass, Woolly (woolly cupgrass; [12]): 95
- Cupgrass, Woolly plant response rating (woolly cupgrass; [13]): 100
- Plant response rating, Barnyardgrass (barnyardgrass; Postemergence, 125 g ai/ha): 70
- Barnyardgrass plant response rating (barnyardgrass; [8]): 90
- Barnyardgrass plant response rating (barnyardgrass; [9]): 80
- Plant response rating, Barnyardgrass (barnyardgrass; Preemergence, 500 g ai/ha): 100
- Blackgrass plant response rating (blackgrass; [10]): 100
- Blackgrass plant response rating (blackgrass; [11]): 100
- Plant response rating, Blackgrass (blackgrass; [12]): 100
- Blackgrass plant response rating (blackgrass; [13]): 100
- Crabgrass, Large plant response rating (crabgrass; [10]): 100
- Crabgrass, Large plant response rating (crabgrass; [11]): 100
- Plant response rating, Crabgrass, Large (crabgrass; [12]): 85
- Crabgrass, Large plant response rating (crabgrass; [13]): 100
- Foxtail, Green plant response rating (green foxtail; [10]): 100
- Foxtail, Green plant response rating (green foxtail; [11]): 100
- Plant response rating, Foxtail, Green (green foxtail; [12]): 100
- Foxtail, Green plant response rating (green foxtail; [13]): 100
- Kochia plant response rating (kochia; [10]): 100
- Kochia plant response rating (kochia; [11]): 100
- Plant response rating, Kochia (kochia; [12]): 100
- Kochia plant response rating (kochia; [13]): 100
- Plant response rating, Morningglory (morningglory [2]; Postemergence, 125 g ai/ha): 30
- Morningglory plant response rating (morningglory [2]; [8]): 70
- Morningglory plant response rating (morningglory [2]; [9]): 30
- Plant response rating, Morningglory (morningglory [2]; Preemergence, 500 g ai/ha): 100
- Corn plant response rating (corn; [10]): 95
- Corn plant response rating (corn; [11]): 98
- Plant response rating, Corn (corn; [12]): 50
- Corn plant response rating (corn; [13]): 100
- Soybean plant response rating (soybean; [10]): 30
- Soybean plant response rating (soybean; [11]): 80
- Soybean plant response rating (soybean; [13]): 85
- Ryegrass, Italian plant response rating (Italian ryegrass; [10]): 85
- Ryegrass, Italian plant response rating (Italian ryegrass; [11]): 100
- Plant response rating, Ryegrass, Italian (Italian ryegrass; [12]): 85
- Ryegrass, Italian plant response rating (Italian ryegrass; [13]): 100
- Plant response rating, Sedge, Umbrella (umbrella sedge; 62 g ai/ha, scale 0 to 100 (0 no effect, 100 complete control)): 80
- Plant response rating, Sedge, Umbrella (umbrella sedge; 250 g ai/ha, scale 0 to 100, 0 no effect, 100 complete control, 13 to 15 days): 100
- Sunflower plant response rating [3, 10]: 45
- Sunflower plant response rating [3, 11]: 45
- Plant response rating, Sunflower [3, 12]: 0
- Sunflower plant response rating [3, 13]: 80
- Wheat plant response rating (wheat; [10]): 60
- Wheat plant response rating (wheat; [11]): 95
- Plant response rating, Wheat (wheat; [12]): 15
- Wheat plant response rating (wheat; [13]): 95
- Cocklebur plant response rating (cocklebur; [10]): 0
- Cocklebur plant response rating (cocklebur; [11]): 0
- Plant response rating, Cocklebur (cocklebur; [12]): 0
- Cocklebur plant response rating (cocklebur; [13]): 0

Source: US20100298141A1, “SUBSTITUTED PYRIDINE N-OXIDE HERBICIDES” (E. I. DU PONT DE NEMOURS AND COMPANY, priority 2007, published 2010)
